Laboratory results taken from patent US9540379B2 (priority 2011, dated 2017).

target: PDE10A (Homo sapiens (Human), UniProt Q9Y233); settings: read-out: Inhibition of PDE10A, IC50
Sequence (Q9Y233 other isoform, or with tags, fused parts or gaps): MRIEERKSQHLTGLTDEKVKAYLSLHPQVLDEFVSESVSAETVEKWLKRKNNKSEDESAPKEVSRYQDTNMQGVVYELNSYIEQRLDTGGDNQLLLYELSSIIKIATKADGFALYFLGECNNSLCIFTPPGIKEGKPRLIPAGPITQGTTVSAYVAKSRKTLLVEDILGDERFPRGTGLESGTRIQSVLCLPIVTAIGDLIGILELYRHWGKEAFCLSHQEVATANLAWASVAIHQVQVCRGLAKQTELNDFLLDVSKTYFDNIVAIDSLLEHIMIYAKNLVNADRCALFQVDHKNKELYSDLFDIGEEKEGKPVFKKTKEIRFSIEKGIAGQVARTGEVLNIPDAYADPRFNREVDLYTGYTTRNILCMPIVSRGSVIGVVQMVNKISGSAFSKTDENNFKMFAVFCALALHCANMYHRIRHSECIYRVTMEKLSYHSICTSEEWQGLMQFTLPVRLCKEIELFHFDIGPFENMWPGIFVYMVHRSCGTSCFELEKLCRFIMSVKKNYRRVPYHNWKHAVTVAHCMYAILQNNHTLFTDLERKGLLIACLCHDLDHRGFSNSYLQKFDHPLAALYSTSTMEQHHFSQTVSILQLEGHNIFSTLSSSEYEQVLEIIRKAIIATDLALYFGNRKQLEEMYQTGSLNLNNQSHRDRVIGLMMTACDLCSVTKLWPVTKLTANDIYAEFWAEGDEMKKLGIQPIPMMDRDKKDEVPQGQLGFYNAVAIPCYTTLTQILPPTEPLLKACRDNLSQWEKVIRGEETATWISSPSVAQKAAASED
Experimental: Inhibition of Recombinant PDE10A (Expressed in Baculovirus/SF21 Cells)
PDE activity was determined in a one step procedure in microtiter plates. The reaction mixture of 100 μl contained 50 mM Tris-HCl/5 mM MgCl2 buffer (pH=7.4, Sigma, Deisenhofen, Germany; Merck, Darmstadt, Germany) 0.1 μM [3H]-cAMP (PerkinElmer, Shelton, USA) and the enzyme. Non-specific enzyme activity was determined without the enzyme.
The reaction was initiated by addition of the substrate solution and was carried out at 37° C. for 30 minutes. Enzymatic activity then was stopped by addition of 25 μl Ysi-SPA-beads (PerkinElmer, Shelton, USA). One h later the mixture was measured in a liquid scintillation counter for microtiter plates (Microbeta Trilux). The Biomek 2000 (Beckman) was used routinely for pipetting of the incubation mixture. […] For determination of IC50 values the Hill-plot, 2-parameter-model, was used.

**Q.** For `Cc1nc2ccc(Cl)cc2n2c(-c3ccccc3Cl)nnc12` [Example 1, 8-Chloro-1-(2-chloro-phenyl)-4-methyl-[1,2,4]triazolo[4,3-a]quinoxaline], which IC50 is on record?
**A.** The IC50 was 0.045 µM.

**Q.** For `Cc1nc2ccc(Cl)cc2n2c(-c3ccccc3F)nnc12` [Example 2, 8-Chloro-1-(2-fluoro-phenyl)-4-methyl-[1,2,4]triazolo[4,3-a]quinoxaline], which IC50 is on record?
**A.** The IC50 was 0.214 µM.

**Q.** `Cc1ncccc1-c1nnc2c(C)nc3ccc(Cl)cc3n12` [Example 5, 8-Chloro-4-methyl-1-(2-methyl-pyridin-3-yl)-[1,2,4]triazolo[4,3-a]quinoxaline] was tested. Which IC50 did it give?
**A.** Its IC50 is 0.383 µM.

**Q.** For `Cc1nc2ccc(Cl)cc2n2c(-c3cc(Cl)ccc3Cl)nnc12` [Example 6, 8-Chloro-1-(2,5-dichloro-phenyl)-4-methyl-[1,2,4]triazolo[4,3-a]quinoxaline], which IC50 is on record?
**A.** Its IC50 is 0.131 µM.

**Q.** How did the IC50 turn out when `COc1ccc(Cl)c(-c2nnc3c(C)nc4ccc(Cl)cc4n23)c1` [Example 7, 8-Chloro-1-(2-chloro-5-methoxy-phenyl)-4-methyl-[1,2,4]triazolo[4,3-a]quinoxaline] was run?
**A.** Its IC50 is 0.104 µM.

**Q.** `Cc1cnccc1-c1nnc2c(C)nc3ccc(Cl)cc3n12` [Example 9, 8-Chloro-4-methyl-1-(3-methyl-pyridin-4-yl)-[1,2,4]triazolo[4,3-a]quinoxaline] was tested. Which IC50 did it give?
**A.** The IC50 was 0.736 µM.

**Q.** With `Cc1nc2ccc(Cl)cc2n2c(-c3cc(C(F)(F)F)ccc3Cl)nnc12` [Example 10, 8-Chloro-1-(2-chloro-5-trifluoromethyl-phenyl)-4-methyl-[1,2,4]triazolo[4,3-a]quinoxaline] as the compound, how does the IC50 read?
**A.** Its IC50 is over 1 µM.

**Q.** With `CCCCOc1ccc(F)c(-c2nnc3c(C)nc4ccc(Cl)cc4n23)c1` [Example 11, 1-(5-Butoxy-2-fluoro-phenyl)-8-chloro-4-methyl-[1,2,4]triazolo[4,3-a]quinoxaline] as the compound, how does the IC50 read?
**A.** Its IC50 is over 1 µM.

**Q.** `CCCCOc1ccc(Cl)c(-c2nnc3c(C)nc4ccc(Cl)cc4n23)c1` [Example 12, 1-(5-Butoxy-2-chloro-phenyl)-8-chloro-4-methyl-[1,2,4]triazolo[4,3-a]quinoxaline] was tested. Which IC50 did it give?
**A.** Its IC50 is over 1 µM.

**Q.** Which IC50 does the source give for `CCCCCCOc1ccc(C)c(-c2nnc3c(C)nc4ccc(Cl)cc4n23)c1` [Example 15, 8-Chloro-1-(5-hexyloxy-2-methyl-phenyl)-4-methyl-[1,2,4]triazolo[4,3-a]quinoxaline] here?
**A.** Its IC50 is over 1 µM.

**Q.** Which IC50 does the source give for `Cc1nc2ccc(Cl)cc2n2c(-c3cc(OCCCC(F)(F)F)ccc3Cl)nnc12` [Example 16, 8-Chloro-1-[2-chloro-5-(4,4,4-trifluoro-butoxy)-phenyl]-4-methyl-[1,2,4]triazolo[4,3-a]quinoxaline] here?
**A.** Its IC50 is over 1 µM.

**Q.** For `Cc1nc2ccc(Cl)cc2n2c(-c3cc(OCCCCF)ccc3F)nnc12` [Example 17, 8-Chloro-1-[2-fluoro-5-(4-fluoro-butoxy)-phenyl]-4-methyl-[1,2,4]triazolo[4,3-a]quinoxaline], which IC50 is on record?
**A.** The IC50 was over 1 µM.

**Q.** How did the IC50 turn out when `Cc1nc2cc(Cl)ccc2n2c(-c3c(F)cccc3F)nnc12` [Example 18, 7-Chloro-1-(2,6-difluoro-phenyl)-4-methyl-[1,2,4]triazolo[4,3-a]quinoxaline] was run?
**A.** The IC50 was 0.103 µM.

**Q.** `Cc1nc2cc(Cl)ccc2n2c(-c3cc(Cl)ccc3Cl)nnc12` [Example 19, 7-Chloro-1-(2,5-dichloro-phenyl)-4-methyl-[1,2,4]triazolo[4,3-a]quinoxaline] was tested. Which IC50 did it give?
**A.** The IC50 was over 1 µM.

**Q.** `Cc1nc2cc(Cl)ccc2n2c(-c3cc(C(F)(F)F)ccc3Cl)nnc12` [Example 21, 7-Chloro-1-(2-chloro-5-trifluoromethyl-phenyl)-4-methyl-[1,2,4]triazolo[4,3-a]quinoxaline] was tested. Which IC50 did it give?
**A.** The IC50 was over 1 µM.

**Q.** `CCCCOc1ccc(F)c(-c2nnc3c(C)nc4cc(Cl)ccc4n23)c1` [Example 22, 1-(5-Butoxy-2-fluoro-phenyl)-7-chloro-4-methyl-[1,2,4]triazolo[4,3-a]quinoxaline] was tested. Which IC50 did it give?
**A.** The IC50 was over 1 µM.

**Q.** How did the IC50 turn out when `CCCCOc1ccc(Cl)c(-c2nnc3c(C)nc4cc(Cl)ccc4n23)c1` [Example 23, 1-(5-Butoxy-2-chloro-phenyl)-7-chloro-4-methyl-[1,2,4]triazolo[4,3-a]quinoxaline] was run?
**A.** Its IC50 is over 1 µM.
